Data as given in ChEMBL document CHEMBL1123001, “Ibotenic acid analogues. Synthesis, molecular flexibility, and in vitro activity of agonists and antagonists at central glutamic acid receptors” (J Med Chem, 1985).
Calls of active or inactive are those of the source. The calls are words filed in the database; no cut-off is given here.

Experiments:
[1] = NMDA Antagonist activity was evaluated; na means no activity; assay type: functional
[2] = organism: Rattus norvegicus; test: Inhibition of [3H]AMPA binding in rat brain membrane was evaluated; assay type: functional
[3] = NMDA Antagonist activity was evaluated; na means no activity; na means no activity; assay type: functional
[4] = organism: Rattus norvegicus; test: GDEE-sensitive neuronal excitant (Relative potency) was evaluated; +++; assay type: functional, organism-based
[5] = Antagonist activity was evaluated by NMDA-induced excitations of feline spinal neuron; activity is seen; assay type: functional; details: filed as antagonist
[6] = Antagonist activity was evaluated by NMDA-induced excitations of feline spinal neuron; no activity; assay type: functional

SMILES | Antagonist activity [1] | IC50 [2] [µM] | Antagonist activity [3] | Relative potency [4] | Antagonist activity [5] | Antagonist activity [6]
Cc1onc(O)c1C[C@H](N)C(=O)O [(S)-AMPA] | inactive | 0.6 |  |  |  | 
Cc1onc(O)c1CC(N)C(=O)O (racemic) [(R,S)-AMPA] |  | 0.8 | inactive | Active |  | 
NC(CCc1cc(O)no1)C(=O)O (centres undefined) |  | 64 |  |  | Antagonist | 
NC(Cc1c(O)noc1CBr)C(=O)O (centres undefined) | inactive | 0.6 |  |  |  | 
N[C@@H](CCC(=O)O)C(=O)O [GLUTAMIC ACID] | inactive | 1.3 |  |  |  | 
Cc1c(O)noc1C(C)C(N)C(=O)O (centres undefined) | inactive | > 100 |  |  |  | 
NC(CCCc1cc(O)no1)C(=O)O (centres undefined) |  | > 100 |  |  | Antagonist | 
CC(C)(C)c1onc(O)c1CC(N)C(=O)O (centres undefined) |  | 10.6 |  |  |  | inactive
Cc1onc(O)c1C[C@@H](N)C(=O)O | inactive | 4.8 |  |  |  | 
